According to PMC3070799 (Neuropharmacology, 2011):
Read-outs that look alike come from different tables or passages of the source.

Assays:
human 5-HT3A receptors = biological target: T1, human 5-HT3A receptors (Homo sapiens, UniProt P46098); assay type: binding
T1 construct: expressed in transfected cells; host or cells: Xenopus laevis oocytes (cRNA from pGEMHE)
T1 sequence (P46098 24-478): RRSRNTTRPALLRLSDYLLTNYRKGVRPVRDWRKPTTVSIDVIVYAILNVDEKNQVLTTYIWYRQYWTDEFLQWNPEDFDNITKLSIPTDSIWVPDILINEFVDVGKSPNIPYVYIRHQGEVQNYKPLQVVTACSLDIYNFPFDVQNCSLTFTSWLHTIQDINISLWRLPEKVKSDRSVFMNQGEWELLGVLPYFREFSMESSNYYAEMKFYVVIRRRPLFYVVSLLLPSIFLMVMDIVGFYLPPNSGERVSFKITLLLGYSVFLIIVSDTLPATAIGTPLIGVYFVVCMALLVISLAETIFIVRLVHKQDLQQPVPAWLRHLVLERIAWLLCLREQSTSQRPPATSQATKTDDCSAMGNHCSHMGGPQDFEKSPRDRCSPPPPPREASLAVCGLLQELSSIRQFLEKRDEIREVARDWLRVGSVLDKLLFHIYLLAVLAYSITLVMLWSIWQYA
Method: (§1) Human embryonic kidney (HEK) 293 cells were maintained on 90 mm tissue culture plates at 37 °C and 7% CO2 in a humidified atmosphere. They were cultured in DMEM:F12 with GlutaMAX™ I media (Dulbecco’s Modified Eagle’s Medium /Nutrient Mix F12 (1:1), Invitrogen, Paisley, UK) containing 10% foetal calf serum. For radioligand binding studies, cells in 90 mm dishes were transfected using polyethyleneimine (PEI): 30 μl PEI (1 mg /ml), 5 μl cDNA and 1 ml DMEM were incubated for 10 min at room temperature, added drop wise to a 80–90% confluent plate, and incubated for 3–4 days before use.
(§2) Competition binding (8 point) was performed on at least three separate plates of transfected cells. […] Reactions were incubated for at least 1 h at 4 °C and terminated by vacuum filtration using a Brandel cell harvester onto GF/B filters pre-soaked in 0.3% polyethyleneimine. Radioactivity was determined by scintillation counting using a Beckman BCLS6500 (Fullerton, California, USA). Data were analysed by iterative curve fitting (GraphPad Prism v3.02) according to the equation:(5) BL=Bmin+Bmax−Bmin/1+10^nH(logL50−logL) where L is the concentration of ligand present; BL is the binding in the presence of ligand concentration L; Bmin is the binding when L = 0; Bmax is the binding when L = ∞, L50 is the concentration of L which gives a binding equal to (Bmax + Bmin)/2; and nH is the Hill coefficient. Results are presented as mean ± S.E.M.. Statistical analysis was performed using ANOVA in conjunction with a Dunnett’s post-hoc test.

human 5-HT3AB receptors = biological target: T2, human 5-HT3AB receptors (Homo sapiens, UniProt O95264+P46098); assay type: binding
T2 construct: expressed in transfected cells; host or cells: Xenopus laevis oocytes (cRNA from pGEMHE)
T2 sequence (P46098 24-478): T1 sequence (P46098 24-478)
T2 sequence (O95264 22-441): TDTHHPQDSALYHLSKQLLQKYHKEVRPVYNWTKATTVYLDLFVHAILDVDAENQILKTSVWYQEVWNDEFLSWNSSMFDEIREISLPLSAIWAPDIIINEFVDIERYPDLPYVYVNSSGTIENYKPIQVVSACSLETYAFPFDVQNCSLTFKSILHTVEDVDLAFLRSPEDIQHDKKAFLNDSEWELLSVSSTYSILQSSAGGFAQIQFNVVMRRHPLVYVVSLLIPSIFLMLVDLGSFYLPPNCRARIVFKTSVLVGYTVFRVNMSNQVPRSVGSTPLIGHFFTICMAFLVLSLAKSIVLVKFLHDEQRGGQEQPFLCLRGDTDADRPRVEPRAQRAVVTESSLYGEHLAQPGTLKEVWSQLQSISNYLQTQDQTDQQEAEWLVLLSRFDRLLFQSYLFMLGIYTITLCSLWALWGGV
Method: as §1, §2

glycine α1 receptors = biological target: glycine α1 receptors; parameters: method as in Yang et al., 2007; conditions: ref Yang et al., 2007; cited from earlier work
glycine α1β receptors = biological target: glycine α1β receptors; parameters: method as in Yang et al., 2007; conditions: ref Yang et al., 2007; cited from earlier work
GABAA receptor = tested on: GABAA receptor; parameters: method as in earlier work; conditions: more potent than PTN; ref Chen et al., 2006; Curtis and Johnston, 1974; Yang et al., 2007; cited from earlier work
glycine α2 receptors = tested on: glycine α2 receptors; parameters: method as in earlier work; conditions: more potent than PTN; ref Chen et al., 2006; Curtis and Johnston, 1974; Yang et al., 2007; cited from earlier work

## CC(C)(C)[C@]1(O)CC2OC(=O)CC23C(=O)OC2OC(=O)[C@H](O)C231 (stereo partly shown) [BB, bilobalide]
Human 5-HT3A receptors
  Effect on binding of [3H]granisetron (1 nM): not affected
Human 5-HT3AB receptors
  Effect on binding of [3H]granisetron (1 nM): not affected

## ginkgolide B [GB]
Human 5-HT3A receptors; compound 2.5 mM
  Effect on binding of [3H]granisetron (1 nM): not affected
Human 5-HT3AB receptors; compound 2.5 mM
  Effect on binding of [3H]granisetron (1 nM): not affected

## C=C(C)[C@@H]1[C@H]2OC(=O)[C@@H]1[C@]1(O)C[C@H]3O[C@]34C(=O)O[C@H]2[C@]14C [PXN, picrotoxinin]
Human 5-HT3A receptors; compound 5 mM
  Effect on binding of [3H]granisetron (1 nM): not affected
Human 5-HT3AB receptors; compound 5 mM
  Effect on binding of [3H]granisetron (1 nM): not affected
Glycine α1 receptors
  IC50: ~5 µM
Glycine α1β receptors
  IC50: ~30 µM
GABAA receptor
  potency relative to PTN: ~50 fold
Glycine α2 receptors
  potency relative to PTN: ~30 fold
